In patent publication US20070077583A1, “Alpha enolase-directed diagnostics and therapeutics for cancer and chemotherapeutic drug resistance” (Aurelium BioPharma, Inc., priority 2005, published 2007):
Entries after “also recorded” stand apart in the source; their conditions may differ.

Assays:
H460 cells = experiment: MTT cytotoxicity assay, H460 cells transfected with α-enolase siRNA; type: cell-based, human
Experimental: To establish the effectiveness of α-enolase silencing on other cancer cell types, H460 non-small cell lung cancer cells were challenged with a chemotherapeutic drug, MTT cytotoxicity assays were carried out and survival curves plotted as shown in FIG. 17.

[1] = test system: MCF-7 and MDA-231 breast cancer cells; experiment: BrdU incorporation cell proliferation assay, MCF-7 and MDA-231; type: cell-based, human; details: MCF-7 and MDA-231 cells
Experimental: A determinant of cell division and viability, pre-requisites for angiogenesis, was assayed by BrdU incorporation in two breast cancer cell lines.

[2] = test system: MDA-435 breast cancer cells; experiment: BrdU incorporation DNA synthesis, MDA-435; type: cell-based, human; details: MDA-435 cells
From the text: The effect of Eno-1 siRNA silencing on tumor cell growth was even more dramatic in the MDA-435 breast cancer cells, where the viability in cells that were transfected with Eno-1 siRNA dropped to only about 17% of the control level (FIG. 40). In these cells the levels of silencing of α-enolase were also quite high, reaching 14% of the α-enolase levels present in the control transfected cells 6 days post-transfection (FIG. 41).

A549 cells = experiment: Cell adhesion assay on collagen-coated plates; type: cell-based, human; details: A549 cells vs normal α-enolase levels
Experimental: Cell adhesion assays were performed using an MTT-based cell assay, as described in FIGS. 8C and 8D. […] The attachment of cells to the surface of the well was counted and a proportion of cells that attached to the surface during the experimental period was determined.

MCF-7 cells = experiment: Annexin-V apoptosis assay, MCF-7; type: cell-based, human; details: MCF-7 cells vs control siRNA
Experimental: Apoptotic cells were measured following incubation with siRNAs. This assay was performed to determine the number of cells that were now susceptible to chemotherapeutic drugs. Cells transfected with siRNA were seeded in Lab-Tek 16-well chamber slides (Electron Microscopy Sciences, Hatfield, Pa.) at 10^4 cells/well 48 hrs post-transfection. Apoptosis was determined 16 hours later by annexin-V staining using the Annexin-V FLUOS kit (Roche, Ltd., Basel, CH) following the manufacturer's instructions. Slides were observed under a fluorescence microscope and images were taken using an Olympus digital camera and the Q-Capture software (QImaging, Burnaby, BC, CA).

[3] = test system: Detroit skin, Hfl fetal lung, and MRC-5 fetal lung fibroblast cell lines; experiment: MTT survival of normal fibroblast cells after α-enolase silencing; type: cell-based; details: relative to mock or control siRNA
Experimental: Detroit skin, Hfl fetal lung, and MRC-5 fetal lung fibroblast cell lines were treated with α-enolase-targeted siRNA as described in Example 5.

MCF-7/ADR xenografts = MCF-7/ADR xenografts in nude mice; type: in vivo; details: 3 μg daily for 16 days, with chemotherapeutic drugs
Experimental: In further studies, the efficacy of a α-enolase-targeted therapeutic in treating an MDR mammary adenocarcinoma cells (MCF/AR) is assessed. Briefly, male […] nude mice 5-7 weeks old, weighing 18 g-22 g are used for the MCF-7/ADR xenografts. Mice receive a subcutaneous (s.c.) injection of the cells using 5×10^5 cells/inoculation under the shoulder. When the s.c. tumor is approximately 5.5 mm in size, mice are randomized into treatment groups of 4 including controls and groups receiving taxol or doxorubicin, alone (4 mg/kg), intraperitoneally (i.p.) every 2 days, α-enolase siRNA alone (3 μg daily for 16 days), or both taxol and α-enolase siRNA (3 μg daily for 16 days for each treatment). […] The animal's weight is measured every 4 days. Tumor growth starting on the first day of treatment is measured and the volume of the xenograft is monitored every 4 days. The mice are anaesthetized and sacrificed when the mean tumor weight is over 1 g in the control group. Tumor tissue is excised from the mice and its weight is measured. […]
In further studies, the efficacy of a α-enolase-targeted therapeutic in treating an mammary adenocarcinoma cells (MCF-7) is assessed. […] The animal's weight is measured every 4 days. Tumor growth starting on the first day of treatment is measured and the volume of the xenograft is monitored every 4 days. […] Tumor tissue is excised from the mice and its weight is measured. […]

## α-enolase siRNA: siRNA duplex targeting human α-enolase mRNA; sense 5′-GGCUGUUGAGCACAUCAAUtt-3′ (SEQ ID NO: 1), antisense SEQ ID NO: 2; Ambion (antisense AUUGAUGUGCUCAACAGCC; bought from Ambion, sense has tt overhang, further chemistry not given here)
H460 cells
  cell viability after siRNA alone: less viable
[1]
  decrease in cell proliferation rates (BrdU): 40-50%
[2]
  decrease in DNA synthesis: 50%
A549 cells
  increase of cell adhesion to collagen-coated plates: 40%
MCF-7 cells
  Annexin-V positive cells: Annexin-V positive cells were detected; also recorded: substantial amount of Annexin-V-positive cells
[3]
  survival of normal fibroblast cells: no effect on survival
MCF-7/ADR xenografts
  total cell number in tumors vs control siRNA: lower
  tumor weight vs control siRNA: smaller tumors by weight
